Assay results: patent US20050027003A1, “Methods of therapeutic treatment using retinoids with reduced side effects” (Allergan, Inc., priority 2003, published 2005)

How the values were obtained:
Type in all cases: in vivo, human
[1] = test system: patients with psoriasis; experiment: Example 2: Phase 3 studies of oral tazarotene for psoriasis, adverse events (Table 1); settings: Taz 4.5 mg
Method: A series of Phase 3 studies are conducted on orally administered tazarotene for the treatment of psoriasis. Adverse events (side effects) are monitored. In addition, published data for acitretin's side effects are also considered.

[2] = test system: patients; experiment: Example 3: two placebo-controlled 24-week safety studies plus dose-response evaluations of oral tazarotene; settings: for incidence of patients discontinuing due to adverse effects: placebo 3%
Method: Two multicenter, double-blind, randomized, placebo-controlled 24-week studies of identical design are conducted to evaluate the safety of oral tazarotene. In addition, 16- to 24-week dose-response evaluations are performed.
In the two safety trials, the incidence of adverse side effects with a 4.5 mg dose administered orally once daily is compared to the incidence of the same side effects with a placebo. […] The majority of these were mild in severity and typical of adverse effects associated with oral retinoids.

[3] = test system: patient with severe psoriasis; experiment: Example 9: patient with severe psoriasis taking Ortho-Novum, tazarotene 6 mg per day; settings: after 30 days
Source text: The patient presents symptoms of severe psoriasis. The symptoms include lesions approximately 4 to 10 centimeters across appearing as raised patches of wine red skin many of which are covered in silvery white scales. The lesions are mostly dry and rough, and quite often noticeably warm to the touch. The lesions are present on the elbows, knees, scalp, and groin area. The patient experiences intense burning and itching associated with the lesions.
The patient is currently taking Ortho-Novum® for contraception.
Tazarotene at a dose of 6 mg per day is prescribed.

[4] = Study 3, treated with Tazarotene for 3 months (N = 220)
[5] = Study 3, treated with Tazarotene for 6 months (N = 92)
[6] = combined data from Studies 1 and 2 (N = 348)

CCOC(=O)c1ccc(C#Cc2ccc3c(c2)C(C)(C)CCS3)nc1 [tazarotene]
Adverse event: Alopecia [1, 4]: 1 (0.5) number (%) of patients
Adverse event: Arthralgia [1, 4]: 28 (12.7) number (%) of patients
Adverse event: Atrophy of skin [1, 4]: 0 (0.0) number (%) of patients
Adverse event: Back pain [1, 4]: 7 (3.2) number (%) of patients
Adverse event: Cheilitis [1, 4]: 149 (67.7) number (%) of patients
Adverse event: Dry Skin [1, 4]: 47 (21.4) number (%) of patients
Adverse event: Dry mouth/Oral dryness [1, 4]: 11 (5.0) number (%) of patients
Adverse event: Epistaxis [1, 4]: 1 (0.5) number (%) of patients
Adverse event: Erythematous rash/Erythema [1, 4]: 0 (0.0) number (%) of patients
Adverse event: Hyperesthesia [1, 4]: 0 (0.0) number (%) of patients
Adverse event: Nail Disorder [1, 4]: 1 (0.5) number (%) of patients
Adverse event: Paresthesia [1, 4]: 3 (1.4) number (%) of patients
Adverse event: Paronychia/Nail disorder [1, 4]: 1 (0.5) number (%) of patients
Adverse event: Pruritus [1, 4]: 11 (5.0) number (%) of patients
Adverse event: Rhinitis [1, 4]: 0 (0.0) number (%) of patients
Adverse event: Rigors/Chills [1, 4]: 1 (0.5) number (%) of patients
Adverse event: Skin peeling/Desquamation [1, 4]: 3 (1.4) number (%) of patients
Adverse event: Sticky skin/Skin disorder [1, 4]: 0 (0.0) number (%) of patients
Adverse event: Xerophthalmia/Eye disorder [1, 4]: 3 (1.4) number (%) of patients
Adverse event: Alopecia [1, 5]: 5 (5.4) number (%) of patients
Adverse event: Arthralgia [1, 5]: 30 (32.6) number (%) of patients
Adverse event: Atrophy of skin [1, 5]: 0 (0.0) number (%) of patients
Adverse event: Back pain [1, 5]: 10 (10.9) number (%) of patients
Adverse event: Cheilitis [1, 5]: 65 (70.7) number (%) of patients
Adverse event: Dry Skin [1, 5]: 24 (26.1) number (%) of patients
Adverse event: Dry mouth/Oral dryness [1, 5]: 2 (2.2) number (%) of patients
Adverse event: Epistaxis [1, 5]: 0 (0.0) number (%) of patients
Adverse event: Erythematous rash/Erythema [1, 5]: 0 (0.0) number (%) of patients
Adverse event: Hyperesthesia [1, 5]: 0 (0.0) number (%) of patients
Adverse event: Nail Disorder [1, 5]: 1 (1.1) number (%) of patients
Adverse event: Paresthesia [1, 5]: 1 (1.1) number (%) of patients
Adverse event: Paronychia/Nail disorder [1, 5]: 1 (1.1) number (%) of patients
Adverse event: Pruritus [1, 5]: 3 (3.3) number (%) of patients
Adverse event: Rhinitis [1, 5]: 0 (0.0) number (%) of patients
Adverse event: Rigors/Chills [1, 5]: 1 (1.1) number (%) of patients
Adverse event: Skin peeling/Desquamation [1, 5]: 1 (1.1) number (%) of patients
Adverse event: Sticky skin/Skin disorder [1, 5]: 0 (0.0) number (%) of patients
Adverse event: Xerophthalmia/Eye disorder [1, 5]: 1 (1.1) number (%) of patients
Adverse event: Alopecia [1, 6]: 1 (0.3) number (%) of patients
Adverse event: Arthralgia [1, 6]: 60 (17.2) number (%) of patients
Adverse event: Atrophy of skin [1, 6]: 0 (0.0) number (%) of patients
Adverse event: Back pain [1, 6]: 16 (4.6) number (%) of patients
Adverse event: Cheilitis [1, 6]: 228 (65.5) number (%) of patients
Adverse event: Dry Skin [1, 6]: 82 (23.6) number (%) of patients
Adverse event: Dry mouth/Oral dryness [1, 6]: 11 (3.2) number (%) of patients
Adverse event: Epistaxis [1, 6]: 2 (0.6) number (%) of patients
Adverse event: Erythematous rash/Erythema [1, 6]: 2 (0.6) number (%) of patients
Adverse event: Hyperesthesia [1, 6]: 0 (0.0) number (%) of patients
Adverse event: Nail Disorder [1, 6]: 2 (0.6) number (%) of patients
Adverse event: Paresthesia [1, 6]: 7 (2.0) number (%) of patients
Adverse event: Paronychia/Nail disorder [1, 6]: 2 (0.6) number (%) of patients
Adverse event: Pruritus [1, 6]: 21 (6.0) number (%) of patients
Adverse event: Rhinitis [1, 6]: 8 (2.3) number (%) of patients
Adverse event: Rigors/Chills [1, 6]: 9 (2.6) number (%) of patients
Adverse event: Skin peeling/Desquamation [1, 6]: 3 (0.9) number (%) of patients
Adverse event: Sticky skin/Skin disorder [1, 6]: 1 (0.3) number (%) of patients
Adverse event: Xerophthalmia/Eye disorder [1, 6]: 8 (2.3) number (%) of patients
incidence of patients discontinuing due to adverse effects ([2]; 4.5 mg (n=348)): 3%
incidence of hypertriglyceridemia, hypercholesterolemia, abnormal liver function tests, increased alanine aminotransferase, increased aspartate aminotransferase, desquamation, eye dryness, alopecia ([2]; 4.5 mg orally once daily vs placebo): essentially the same incidence
incidence of patients discontinuing due to adverse effects ([2]; 6.3 mg (n=16)): 13%
incidence of patients discontinuing due to adverse effects ([2]; 0.4 to 1.1 mg (n=105)): approximately 2%
incidence of patients discontinuing due to adverse effects ([2]; 2.1 to 2.8 mg (n=21)): 10%
incidence of patients discontinuing due to adverse effects ([2]; (n=14)): 0%
severity of lesions [3]: substantially lessened
symptoms of itching and burning [3]: relieved
